Legend:
U87 cells [1] = test: MTT cell viability assay; assay type: cell-based, human
Experimental: (§1) Cell culture growth conditions: Selected cancer cell lines from different origins, including human glioblastoma A172 (CRL-1620), LN229 (CRL-2611), U87 (HTB-14) cell lines, human cervix HeLa (ATCC, CCL-2), human breast MDA -231 (HTB-26), human prostate PC-3 (ATCC, CRL-1435), human lung A-549 (CCL-185), and non-cancer Chinese hamster ovary CHOK1 cell line (CCL61) (which was used as control) were purchased from American Type Culture Collection (ATCC, USA). These cultures were grown in Dulbecco's modified Eagle's medium-F12 (DMEM/F12, #D0547, Sigma-Aldrich) supplemented with 5% fetal bovine serum (#10500, Gibco) and 1% antibiotic-antimycotic (#15240, Gibco), and incubated at 37°C and 5% CO2. They were harvested and used for the following assays after reaching 70–80% confluency.
(§2) The used cell lines (A172, LN229, U87, HeLa, MDA-231, PC-3, A549, and CHO-K1) were harvested and seeded (6 × 10^3 cells/well) into the 96-well plates and incubated at 37°C and 5% CO2 for 24 h. After that, the synthesized Cu(II) and Pt(II) complexes, at a concentration range of 6.25 to 100 μM in DMEM-F12, were added to the cell monolayers and incubated at 37°C and 5% CO2 for 24, 48, and 72 h. The dose–response relationships of the synthesized complexes were determined by using an MTT colorimetric agent (3-[4,5-dimethylthiazol-2-yl]-2,5-diphenyltetrazolium bromide, #M5655, Sigma-Aldrich), which is reduced by the mitochondrial enzymes of the metabolically active live cells and converted into a purple formazan product. The MTT stock solution was later dissolved in a phosphate buffer solution (PBS, 5 mg/ml, w/v) and, then, 5 μg/ml of MTT in DMEM was added into each well and incubated at 37°C and 5% CO2 for 4 h. DMSO (#D 8418, Sigma-Aldrich), as a dissolving solution for formazan crystals, was added into each well and placed in a shaker for 2 h. The absorbance at a test wavelength of 570 nm and a reference wavelength of 630 nm was measured on a microplate reader.

CHO-K1 cells = test: MTT cell viability assay (non-cancer control); assay type: cell-based, Chinese hamster
Experimental: as §1, §2

HeLa cells [2] = test: Apoptosis, TUNEL assay; assay type: cell-based, human; settings: 50 and 100 μM, 24 h
Experimental: (§3) The sensitive U87 and HeLa cell lines, selected according to the results of the IC50 values of the examined Cu(II) and Pt(II) complexes, were seeded at a seeding cell number of 5 × 10^4 cells on the 12 mm round cover slips placed in the 24-well plate and incubated at 37°C and 5% CO2 for 24 h. The following day, the Cu(dpq)Cl2, Cu(dtq)Cl2, Pt(dpq)Cl2 and Pt(dtq)Cl2 complexes were freshly prepared and added at a range of 50 and 100 μM to the cell monolayers. After a 24 h incubation time, the cell monolayers were fixed with 4% paraformaldehyde for 15 min at room temperature and, then, the terminal deoxynucleotidyl transferase (TdT)-mediated dUTP nick end labeling (TUNEL) method was applied to detect the DNA damage associated with apoptosis. A commercial assay kit, In Situ Cell Death Detection Kit (Roche, #11767291910), was used for this purpose in accordance to the manufacturer's instructions. The experiment was repeated twice with the tested cell lines, and images were recorded with using a Leica DMI 6000 fluorescence microscope with 40× magnification.

U87 cells [3] = test: Apoptosis, TUNEL assay; assay type: cell-based, human; settings: U87, 50 and 100 μM, 24 h
Experimental: as §3

[4] = system: A172, LN229, U87, A549, Hela, PC-3, and MDA-231 cells; test: ROS production, DCFDA assay, all used cell lines; assay type: cell-based, human; settings: all used cell lines; 6.25 to 100 μM, 24 h
Experimental: (§4) The reactive oxygen species (ROS) formation on the selected cell lines upon exposure to the synthesized Cu(II) and Pt(II) complexes was investigated using the oxidation-sensitive dye, 2ʹ,7ʹ-dichlorofluorescein diacetate (DCFDA, #D6883 Sigma-Aldrich). The cell lines (A172, LN229, U87, HeLa, MDA-231, PC-3, A549, and CHO-K1) were seeded (6 × 10^3 cells/well) into the 96-well plates and incubated at 37°C and 5% CO2 for 24 h. After that, the Cu(II) and Pt(II) complexes, at a concentration range of 6.25 to 100 μM, were added to the cell monolayers. Hydrogen peroxide (H2O2), at concentrations from 50 to 500 μM, was utilized as a positive control. The following day, 5 μM of DCFDA in PBS was added to the cell monolayers and, then, the plate was incubated for 30–45 min. Consequently, the fluorescence intensity was measured with 485 nm excitation and 535 nm emission wavelengths using a microplate reader. The fluorescence values of each treatment were normalized to the negative control, including only growth medium without any treatment. The assay was repeated in triplicate.

prostate PC3 cells = test: ROS production, DCFDA assay; assay type: cell-based, human; settings: 6.25 to 100 μM, 24 h
Experimental: as §4

[5] = system: lung A549, cervix HeLa, and breast MD-A231 cells; test: ROS production, DCFDA assay; assay type: cell-based, human; settings: MDA-231, 6.25 to 100 μM, 24 h, vs negative control
Experimental: as §4

HeLa cells [6] = test: In vitro comet assay; assay type: cell-based, human; settings: 25 and 50 μM, 24 h
Experimental: (§5) Commet assay was performed with U87 and HeLa cell lines (4 × 10^4 cells/well) to detect DNA damage in the individual eukaryotic cells, where 25 or 50 μM Cu(II) or Pt(II) complexes were added to the cells and incubated for 24 h. Subsequently, the comet assay was performed as described before.[31] The DNA damage was evaluated by calculating the DNA tail percentage using the following equation: DNA tail % = 100× tailing DNA density/cell DNA density. The assay was repeated twice, and 50 individual cells were involved for each treatment.

U87 cells [7] = test: In vitro comet assay; assay type: cell-based, human; settings: U87, 25 and 50 μM, 24 h
Experimental: as §5

HeLa cells [8] = test: In vitro scratch wound healing (cell migration); assay type: cell-based, human; settings: 6.25 and 12.5 μM, 24, 48, and 72 h
Experimental: In vitro scratch wound healing experiments were carried out with HeLa cell lines (3 × 10^4 cells/insert), which were seeded into 6-well plates. When they reached 80–90% confluence, scratches were created using AutoScratch (BioTek) in a straight line. The same Cu(II) or Pt(II) complex concentrations (6.25 or 12.5 μM) were used and incubated in the presence of 5% CO2 at 37°C in a humidified incubator for 24, 48, and 72 h. Images were obtained at the beginning of the exposure (time 0), and repeated at the end of 24, 48, and 72 h incubation periods.

Row | IC50 (U87 cells [1]; U87, 24 h exposure) | IC50 (U87 cells [1]; U87, 48 h exposure) | IC50 (U87 cells [1]; U87, 72 h exposure) | SMILES | IC50 (CHO-K1 cells; CHO-K1, 24 h exposure) | IC50 (CHO-K1 cells; CHO-K1, 48 h exposure) | IC50 (CHO-K1 cells; CHO-K1, 72 h exposure) | apoptosis (DNA fragmentation, TUNEL) (HeLa cells [2]) | apoptosis (DNA fragmentation, TUNEL) (U87 cells [3]) | ROS formation [4] | ROS formation (prostate PC3 cells) | increase of ROS production [5] | genotoxicity (DNA damage, comet) (HeLa cells [6]) | genotoxicity (DNA damage, comet) (U87 cells [7]) | migration of HeLa cells toward the scratch zone (HeLa cells [8])
1 | 79.5 ± 26.4 µM | 5.49 ± 0.01 µM | 13.5 ± 6.06 µM | [Cl][Cu][Cl].c1ccc(-c2nc3ccc(-c4ccc5nc(-c6ccccn6)c(-c6ccccn6)nc5c4)cc3nc2-c2ccccn2)nc1 [Cu(tpbq)Cl2] | > 100 µM | > 100 µM | > 100 µM | none of which induced any apoptosis | none of which induced any apoptosis |  |  |  |  |  | 
2 | 31.2 ± 0.43 µM | 2.95 ± 0.97 µM | 5.75 ± 0.03 µM | [Cl][Cu][Cl].c1csc(-c2nc3ccc(-c4ccc5nc(-c6cccs6)c(-c6cccs6)nc5c4)cc3nc2-c2cccs2)c1 [Cu(ttbq)Cl2] | > 100 µM | > 100 µM | > 100 µM | none of which induced any apoptosis | apoptotic potential of the U87 cells was observed | highest increase in the level of ROS formation | no formation | ~2 fold | only genotoxic on the Hela cells at a high concentration (50 μM) | caused DNA damage on the U87 cells at both concentrations | declined
3 | 58.4 ± 11.8 µM | 34.7 ± 2.16 µM |  | [Cl][Pt][Cl].c1ccc(-c2nc3ccc(-c4ccc5nc(-c6ccccn6)c(-c6ccccn6)nc5c4)cc3nc2-c2ccccn2)nc1 [Pt(tpbq)Cl2] | > 100 µM | 86.6 ± 1.98 µM | 77.5 ± 0.87 µM | none of which induced any apoptosis | apoptotic potential of the U87 cells was observed | did not induce any ROS formation |  |  |  |  | declined
4 | > 100 µM | 9.24 ± 4.16 µM | 5.95 ± 1.68 µM | [Cl][Pt][Cl].c1csc(-c2nc3ccc(-c4ccc5nc(-c6cccs6)c(-c6cccs6)nc5c4)cc3nc2-c2cccs2)c1 [Pt(ttbq)Cl2] | > 100 µM | > 100 µM | > 100 µM | apoptosis on HeLa cells was only observed | none of which induced any apoptosis |  | no formation | ~2 fold |  | caused DNA damage on the U87 cells at both concentrations | declined

— paper PMC10849753, “Antiproliferative activity of platinum(II) and copper(II) complexes containing novel biquinoxaline ligands” (Metallomics: Integrated Biometal Science, 2024)
